Here are results for 29 compounds from the Deep4Chem optical property database.

The data set in a line: photoluminescence quantum yield (fraction); solvent given as SMILES.

Molecules are shown by their SMILES.

Regarding `CCCCCCCCCc1c2ccccc2cc2c1oc1c3oc4c5oc6cc7ccccc7cc6c5c5ccccc5c4c3c3ccccc3c21`, the photoluminescence quantum yield (in C1CCOC1) turned out to be 0.75.
Regarding `C(#Cc1ccc2ccc3cccc4ccc1c2c34)c1ccccc1`, the photoluminescence quantum yield (in Cc1ccccc1) was 0.61.
Turning to `COc1c(/C=N/Nc2ccc(C#N)cc2)ccc2ccccc12`, where the note is “in CO”, the photoluminescence quantum yield came out at 0.16.
In turn, `CCCCCCN1C(=O)C(c2ccc(-c3ccc(-n4c5ccccc5c5ccccc54)cc3)cc2)=C(c2ccc(-c3ccc(-n4c5ccccc5c5ccccc54)cc3)cc2)C1=O` showed a photoluminescence quantum yield (in ClC(Cl)Cl) of 0.84 and a photoluminescence quantum yield (in c1ccc2c(c1)c1ccccc1n2-c1ccc(-c2ccc(-n3c4ccccc4c4ccccc43)cc2)cc1) of 0.57.
On to `CCCCN1c2ccccc2Sc2cc(/C=C/c3nc4nc5ccccc5nc4s3)ccc21`, for which the photoluminescence quantum yield is, setting by setting: (in C1CCCCC1) 0.27; (in C1CCOC1) 0.01; (in C1COCCO1) 0.07; (in CC#N) 0; (in CC(C)=O) 0.001; (in CC(C)O) 0. The photoluminescence quantum yield was 0.02 (in CCOC(C)=O); 0.05 (in CCOCC); 0 (in CO); 0 (in CS(C)=O); 0.08 (in Cc1ccccc1); 0.008 (in ClCCl).
Regarding `COc1ccc(O)c(-c2[nH]c(=O)n3c2-c2ccccc2C3=O)c1`, the photoluminescence quantum yield runs as follows: (in CC#N) 0.46; (in CO) 0.01; (in ClCCl) 0.66.
With `Cn1nc(-c2ccccc2)c2nc3cc(F)ccc3nc21`, the photoluminescence quantum yield (in C1CCCCC1) stood at 0.61, the photoluminescence quantum yield (in C1CCOC1) was 0.38 and the photoluminescence quantum yield (in CC#N) amounted to 0.11.
For the setting “in c1cc(-n2c3ccccc3c3ccccc32)cc(-n2c3ccccc3c3ccccc32)c1”, `N#Cc1cc(-n2c3ccccc3c3cccnc32)c(-n2c3ccccc3c3cccnc32)cc1C#N` returned a photoluminescence quantum yield of 0.37.
Take `CCOC(=O)C1=CN(c2ccccc2)C=CC1c1ccccc1` (centres undefined): the photoluminescence quantum yield stood at 0.12 (in C1CCOC1) and 0.05 (in CO).
`CCCCCCN1C(=O)c2cccc3c(-c4ccc(C)s4)ccc(c23)C1=O` displayed a photoluminescence quantum yield (in ClC(Cl)Cl) of 0.78.
On to `CC(C)(C)c1ccc(-c2c3c(c(-c4ccc(C(C)(C)C)cc4)c4cc5ccccc5cc24)Cc2c(c(-c4ccc(C(C)(C)C)cc4)c4cc5ccccc5cc4c2-c2ccc(C(C)(C)C)cc2)C3)cc1`, for which the photoluminescence quantum yield (in ClCCl) worked out at 0.15.
Take `c1ccc(-c2c3ccccc3c(-c3ncccn3)c3ccccc23)cc1`: the photoluminescence quantum yield runs as follows: (in CCO) 0.08; (in ClCCl) 0.16.
For the compound `Cc1cc(C(F)(F)F)nc2c1ccc1nc(-c3ccc(F)c(F)c3)cn12`, the photoluminescence quantum yield came out at 0.84 (in CC#N), 0.78 (in CCCCOC(C)=O), 0.83 (in CO) and 0.96 (in ClC(Cl)Cl).
As to `CCC(=O)c1ccc2cc(N(C)C)ccc2c1`, the photoluminescence quantum yield (in C1CCOC1) came to 0.83; the photoluminescence quantum yield (in C1COCCO1) was 0.61; the photoluminescence quantum yield (in CC#N) is 0.94; the photoluminescence quantum yield (in CCCCCC) stood at 0.02; the photoluminescence quantum yield (in CCCCCCC) was 0.019; the photoluminescence quantum yield (in CCCCCCCCO) is 0.385. The photoluminescence quantum yield by setting is: (in CCO) 0.95; (in CN(C)C=O) 0.92; (in CO) 0.71; (in CS(C)=O) 0.75; (in Cc1ccccc1) 0.52; (in ClC(Cl)Cl) 0.88. Besides, the photoluminescence quantum yield (in ClCCl) amounted to 0.94.
On to `C[N+]1=C(/C=C/C2=C3Oc4c(cc5c6c4CCCN6CCC5)C(c4ccccc4C(=O)O)=C3CCC2)C(C)(C)c2c1ccc1ccccc21`, for which the photoluminescence quantum yield is, setting by setting: (in CC#N) 0.2; (in CCO) 0.29; (in CO) 0.3; (in ClC(Cl)Cl) 0.46.
With `COc1cccc2cc(-c3ccc([N+](=O)[O-])cc3)c(=O)oc12`, the photoluminescence quantum yield by setting is: (in C1CCOC1) 0.005; (in CC#N) 0.0019; (in CS(C)=O) 0.0015; (in ClC(Cl)Cl) 0.014.
In the case of `CCC1=C(C)C2=C(C)c3c(I)c(I)cn3[B-](F)(F)[N+]2=C1C`, the photoluminescence quantum yield runs as follows: (in C1CCCCC1) 0.05; (in CC(C)=O) 0.024; (in CCO) 0.021; (in CCOC(C)=O) 0.031; (in CO) 0.02; (in OCC(F)(F)F) 0.019.
As to `CCCCCCCCCCOc1ccc2cc(C3=C4C(=O)N(CC(OCC)OCC)C(c5cc6ccc(OCCCCCCCCCC)cc6o5)=C4C(=O)N3CC(OCC)OCC)oc2c1`, the photoluminescence quantum yield (in ClC(Cl)Cl) turned out to be 0.75.
Take `CCCCCCCCCCn1nnc(-c2ccc(C#Cc3ccc(C#Cc4ccc(-c5nnn(CCCCCCCCCC)n5)cc4)c4nc5c6ccccc6c6ccccc6c5nc34)cc2)n1`: the photoluminescence quantum yield is, setting by setting: (in C1CCOC1) 0.05; (in Cc1ccccc1) 0.07; (in ClCCl) 0.04.
Take `Cc1cccc2nc3c(=O)[nH]c(=O)[nH]c3nc12`: the photoluminescence quantum yield is 0.033 (in C1COCCO1); 0.018 (in CC#N); 0.03 (in CCO); 0.044 (in CO); 0.028 (in ClCCCl); 0.053 (in O).
Take `N#C/C(=C\c1ccc(C#N)cc1)c1nc(-c2ccc(Cl)cc2)cs1`: where the note is “in CC#N”, the photoluminescence quantum yield worked out at 0.18.
Where the note is “in ClCCl”, `CC(C)[Si](C#Cc1cc2c3c(c1)c(=C1c4ccccc4Sc4ccccc41)c1cc(C#C[Si](C(C)C)(C(C)C)C(C)C)cc4c1N3c1c(cc(C#C[Si](C(C)C)(C(C)C)C(C)C)cc1c4=C1c3ccccc3Sc3ccccc31)c2=C1c2ccccc2Sc2ccccc21)(C(C)C)C(C)C` gave a photoluminescence quantum yield of 0.46.
On to `CC(C)c1cccc(C(C)C)c1-n1c(=O)c2ccc3c4ccc5c(=O)n(-c6c(C(C)C)cccc6C(C)C)c(=O)c6cc7c(-c8ccccn8)nc8cc(c1=O)c2c3c8c7c4c56`, for which the photoluminescence quantum yield (in ClC(Cl)Cl) worked out at 0.36.
Where the note is “in ClCCl”, `CCOC(=O)/N=c1/oc2cc(OC)ccc2cc1C#N` returned a photoluminescence quantum yield of 0.0065.
Where the note is “in CO”, `CCN(CC)c1ccc(/C=N/Nc2ccc(C#N)cc2)c(O)c1` registered a photoluminescence quantum yield of 0.21.
In the case of `CN(C)c1ccc(/C=C2\CC/C(=C\c3ccc(N(C)C)cc3)C2=O)cc1`, the photoluminescence quantum yield (in C1CCOC1) stood at 0.089; the photoluminescence quantum yield (in C1COCCO1) amounted to 0.08; the photoluminescence quantum yield (in CC#N) worked out at 0.11; the photoluminescence quantum yield (in CC(C)=O) worked out at 0.15; the photoluminescence quantum yield (in CC(C)O) is 0.18; the photoluminescence quantum yield (in CCO) was found to be 0.11. Further, the photoluminescence quantum yield was determined as 0.09 (in CCOC(C)=O); 0.19 (in CN(C)C=O); 0.025 (in CO); 0.2 (in CS(C)=O); 0.08 (in Cc1ccccc1); 0.043 (in ClC(Cl)(Cl)Cl). Moreover, the photoluminescence quantum yield is, setting by setting: (in ClC(Cl)Cl) 0.13; (in ClCCl) 0.16; (in S=C=S) 0.1.
In turn, `Cc1cc(C)c(-c2nnc(-c3ccc(-n4c5ccccc5c5ccccc54)c(C)c3)o2)c(C)c1` had a photoluminescence quantum yield (in Cc1ccccc1) of 0.44.
Take `CCCCCCCCCCCCOc1cc2c3c(ccc4c5c(SCCCCCCCCCCCC)cc6c7c(ccc(c1c34)c75)C(=O)N(C1CCCCC1)C6=O)C(=O)N(C1CCCCC1)C2=O`: the photoluminescence quantum yield (in ClC(Cl)Cl) came out at 0.39.
In the case of `COc1cccc(OC)c1-c1c2ccccc2c(-c2c(OC)cccc2OC)c2ccccc12`, the photoluminescence quantum yield (in C1CCCCC1) amounted to 0.94.
